Source: US4048299A, “Anticaries confectionaries and oral health products” (William Wrigley, Jr. Co., priority 1970, dated 1977)

Experiments:
[1] = system: Lactobacillus casei and Streptococcus sp. FA-1; assay: Acid-production inhibition by broth-tube assay, 0.1 percent of compound; type: cell-based; settings: Table XII; 0.1% of compound
Description: ^(a) Activity was measured by broth-tube assay to determine percent
(§1) acid-production inhibition obtained by Lactobacillus casei and
Streptococcus sp. FA-1 in the presence of 0.1 percent of compound.
^(a) Activity was measured by broth-tube assay to determine percent o
as §1
Streptococcus sp. FA-1 in the presence of 0.1% of compound. Symbols

[2] = system: Lactobacillus casei ATCC 4646; assay: Acid production inhibition by aldehydes in product vehicles, broth-tube technique; type: cell-based; settings: 1 to 5 percent aldehyde
Description: (§2) Other in vitro evaluations utilized a broth tube analysis of representative anticaries aldehydes incorporated in the vehicles of this invention against cultures of acid producing microorganisms normally present in the mouth. Standard laboratory procedures were utilized throughout to evaluate the acid production inhibition and growth inhibition over the incubation time of up to 24 hours.
(§3) (a)Measured by broth-tube technique.
(§4) In formulating Tables XIII - XIX representative aldehydes having anticaries activity were selected from those tested as summarized in Tables I - XII and incorporated in seven representative types of products. The products included dextrose and sucrose syrups, obtained commercially in food grades, and compressed candy, hard candy, mouthwash, toothpaste and toothpowder. The five latter products also employed food grade and reagent grade ingredients. These products were formulated by well-known and representative recipes for each type of product. The products were formed in batches of approximately 1 pound or 1 liter and contained all their normal constitutents. Aliquots of each products were blended with one of each of the representative aldehydes selected except in the case of hard candy.
(§5) Aliquots of the aldehyde incorporating sugar syrups, confectioneries, and mouthwash formulations were added directly to assay flasks and mixed or dissolved as required. Aqueous extracts of the aldehyde incorporated in toothpaste and toothpowder were prepared and aliquots of the filtrate were added to the assay flasks.
(§6) The assay flasks contained the necessary components for a normal growth response from the organisms employed, Lactobacillus casei ATCC 4646, originally a human oral isolate, Streptococcus spp. K1-R, human caries isolate, and a mixed oral microbial population obtained fresh from saliva on the morning prior to the initiation of each assay incubation period. The assay flask medium was dissolved in distilled water in which was added an equal volume of filter sterilized human saliva to yield a 50 percent saliva-medium combination. The medium contained all normal ingredients such as yeast extract, proteose peptone number 3 (a proprietary formula of Difco Laboratories, Detroit, Michigan) monopotassium phosphate, Tween 80 (polyoxethylene sorbitan monoleate) and water, except a carbon source. This was supplied by the aliquot of the sucrose syrup, dextrose syrup, sucrose in the compressed candy tablet and sucrose in the hard candy product. In addition, an aliquot of sucrose solution concentrate was added to the assay flask as a carbon source for evaluation of mouthwash, toothpaste, and toothpowder vehicles.
(§7) The lower aldehydes such as glycolaldehyde, crystalline dimer; pyruvaldehyde, aqueous syrup; d,1-glyceraldehyde solution and crystalline dimer; and glutaraldehyde, employed as a 50 percent aqueous solution, are water soluble and were employed directly either as powders or aqueous solutions. The C8 to C12, longer chain aliphatic aldehydes, of which decyl and dodecyl (lauric) were selected as representative, are oil soluble and are prepared and added to the products as emulsions with four parts of Tween 20, polyoxethylene sorbitan monolaurate. The aldehyde concentrations in the products were randomly chosen between 1 to 5 percent by weight. Limits for the concentrations were selected to coincide with the data presented in Tables I - XII in order to verify that the anticaries activity of the aldehydes in the product vehicles tested was equivalent to the activity previously established for the aldehydes alone.

[3] = system: Mixed human oral microorganisms; assay: as above; type: cell-based; settings: 1 to 5 percent aldehyde
Description: as §2, §3, §4, §5, §6, §7

[4] = system: Streptococcus spp. KI-R; assay: as above; type: cell-based; settings: 1 to 5 percent aldehyde
Description: as §2, §3, §4, §5, §6, §7

[5] = system: Lactobacillus casei ATCC 4646; assay: Growth inhibition by aldehydes in product vehicles, pour-plate technique; type: cell-based; settings: 1 to 5 percent aldehyde
Description: as §2
(§8) (b)Measured by pour-plate technique.
as §4, §5, §6, §7

[6] = system: Mixed human oral microorganisms; assay: as above; type: cell-based; settings: 1 to 5 percent aldehyde
Description: as §2, §8, §4, §5, §6, §7

[7] = system: Streptococcus spp. KI-R; assay: as above; type: cell-based; settings: 1 to 5 percent aldehyde
Description: as §2, §8, §4, §5, §6, §7

[8] = system: oral microorganisms; assay: Comparison of activity against oral microorganisms in vitro; settings: in words, summary of tables
Description: Two types of in vitro evaluations of the anticaries agents of this invention were conducted. […] The data was compiled through well-known broth tube analysis techniques.

[9] = in compressed candy tablet, 2 h incubation
[10] = in compressed candy tablet, 5 h incubation
[11] = in compressed candy tablet, 24 h incubation
[12] = in dextrose syrup, 2 h incubation
[13] = in dextrose syrup, 5 h incubation
[14] = in dextrose syrup, 24 h incubation
[15] = in sucrose syrup, 2 h incubation
[16] = in sucrose syrup, 5 h incubation
[17] = in sucrose syrup, 24 h incubation
[18] = in tooth powder (aqueous extract), 2 h incubation
[19] = in tooth powder (aqueous extract), 5 h incubation
[20] = in tooth powder (aqueous extract), 24 h incubation
[21] = in toothpaste (aqueous extract), 2 h incubation
[22] = in toothpaste (aqueous extract), 5 h incubation
[23] = in toothpaste (aqueous extract), 24 h incubation

O=CCCCC=O [Glutaraldehyde]
Activity, Acid-Production Inhibition, % [1]: ++++ (99 to 100) | Acid Production Inhibition [2, 9]: 0 Per Cent | Acid Production Inhibition [2, 10]: 33 Per Cent | Acid Production Inhibition [2, 11]: 81 Per Cent | Acid Production Inhibition [2, 12]: 76 Per Cent | Acid Production Inhibition [2, 13]: 70 Per Cent | Acid Production Inhibition [2, 14]: 29 Per Cent | Acid Production Inhibition [2, 15]: 100 Per cent | Acid Production Inhibition [2, 16]: 75 Per cent | Acid Production Inhibition [2, 17]: 50 Per cent | Acid Production Inhibition [2, 18]: 0 Per cent | Acid Production Inhibition [2, 19]: 33 Per cent | Acid Production Inhibition [2, 20]: 21 Per cent | Acid Production Inhibition [2, 21]: 80 Per cent | Acid Production Inhibition [2, 22]: 80 Per cent | Acid Production Inhibition [2, 23]: 50 Per cent | Acid Production Inhibition [3, 9]: 100 Per Cent | Acid Production Inhibition [3, 10]: 100 Per Cent | Acid Production Inhibition [3, 11]: 0 Per Cent | Acid Production Inhibition [3, 12]: 23 Per Cent | Acid Production Inhibition [3, 13]: 81 Per Cent | Acid Production Inhibition [3, 14]: 16 Per Cent | Acid Production Inhibition ([3]; in mouthwash, 2 h incubation): 0 Per cent | Acid Production Inhibition ([3]; in mouthwash, 5 h incubation): 100 Per cent | Acid Production Inhibition ([3]; in mouthwash, 24 h incubation): 91 Per cent | Acid Production Inhibition [3, 15]: 100 Per cent | Acid Production Inhibition [3, 16]: 59 Per cent | Acid Production Inhibition [3, 17]: 0 Per cent | Acid Production Inhibition [3, 18]: 67 Per cent | Acid Production Inhibition [3, 19]: 95 Per cent | Acid Production Inhibition [3, 20]: 45 Per cent | Acid Production Inhibition [3, 21]: 0 Per cent | Acid Production Inhibition [3, 22]: 0 Per cent | Acid Production Inhibition [3, 23]: 0 Per cent | Acid Production Inhibition [4, 9]: 100 Per Cent | Acid Production Inhibition [4, 10]: 100 Per Cent | Acid Production Inhibition [4, 11]: 100 Per Cent | Acid Production Inhibition [4, 12]: 70 Per Cent | Acid Production Inhibition [4, 13]: 93 Per Cent | Acid Production Inhibition [4, 14]: 0 Per Cent | Acid Production Inhibition ([4]; in mouthwash, 2 h incubation): 0 Per cent | Acid Production Inhibition ([4]; in mouthwash, 5 h incubation): 0 Per cent | Acid Production Inhibition ([4]; in mouthwash, 24 h incubation): 99 Per cent | Acid Production Inhibition [4, 15]: 100 Per cent | Acid Production Inhibition [4, 16]: 83 Per cent | Acid Production Inhibition [4, 17]: 0 Per cent | Acid Production Inhibition [4, 18]: 0 Per cent | Acid Production Inhibition [4, 19]: 0 Per cent | Acid Production Inhibition [4, 20]: 0 Per cent | Acid Production Inhibition [4, 21]: 100 Per cent | Acid Production Inhibition [4, 22]: 100 Per cent | Acid Production Inhibition [4, 23]: 84 Per cent | Growth Inhibition [5, 9]: N.S. | Growth Inhibition [5, 10]: N.S. | Growth Inhibition [5, 11]: 99.5 Per Cent | Growth Inhibition [5, 12]: N.S. | Growth Inhibition [5, 13]: N.S. | Growth Inhibition [5, 14]: 90 Per Cent | Growth Inhibition [5, 15]: N.S. | Growth Inhibition [5, 16]: N.S. | Growth Inhibition [5, 17]: N.S. | Growth Inhibition [5, 18]: N.S. | Growth Inhibition [5, 19]: N.S. | Growth Inhibition [5, 20]: N.S. | Growth Inhibition [5, 21]: N.S. | Growth Inhibition [5, 22]: N.S. | Growth Inhibition [5, 23]: 0 Per cent | Growth Inhibition [6, 9]: 97.3 Per Cent | Growth Inhibition [6, 10]: 99.8 Per Cent | Growth Inhibition [6, 11]: N.S. | Growth Inhibition [6, 12]: 92.5 Per Cent | Growth Inhibition [6, 13]: 90 Per Cent | Growth Inhibition [6, 14]: N.S. | Growth Inhibition ([6]; in mouthwash, 2 h incubation): 100 Per cent | Growth Inhibition ([6]; in mouthwash, 5 h incubation): 100 Per cent | Growth Inhibition ([6]; in mouthwash, 24 h incubation): 99.9 Per cent | Growth Inhibition [6, 15]: 90 Per cent | Growth Inhibition [6, 16]: 93 Per cent | Growth Inhibition [6, 17]: N.S. | Growth Inhibition [6, 18]: N.S. | Growth Inhibition [6, 19]: 96.6 Per cent | Growth Inhibition [6, 20]: N.S. | Growth Inhibition [6, 21]: 0 Per cent | Growth Inhibition [6, 22]: N.S. | Growth Inhibition [6, 23]: N.S. | Growth Inhibition [7, 9]: N.S. | Growth Inhibition [7, 10]: N.S. | Growth Inhibition [7, 11]: N.S. | Growth Inhibition [7, 12]: N.S. | Growth Inhibition [7, 13]: 99.96 Per Cent | Growth Inhibition [7, 14]: 0 Per Cent | Growth Inhibition ([7]; in mouthwash, 2 h incubation): 100 Per cent | Growth Inhibition ([7]; in mouthwash, 5 h incubation): 99.999 Per cent | Growth Inhibition ([7]; in mouthwash, 24 h incubation): 100 Per cent | Growth Inhibition [7, 15]: N.S. | Growth Inhibition [7, 16]: > 99 Per cent | Growth Inhibition [7, 17]: 90 Per cent | Growth Inhibition [7, 18]: N.S. | Growth Inhibition [7, 19]: N.S. | Growth Inhibition [7, 20]: N.S. | Growth Inhibition [7, 21]: N.S. | Growth Inhibition [7, 22]: N.S. | Growth Inhibition [7, 23]: N.S. | Solubility: water soluble

CC(O)C=O (stereo not drawn) [α-Hydroxypropionaldehyde]
Anticaries activity in vitro [8]: excellent anticaries activity
